From ChEMBL document CHEMBL4152220, “Discovery of new benzensulfonamide derivatives as tripedal STAT3 inhibitors” (Eur J Med Chem, 2018)
The source made the active and inactive calls. The rule behind the calls is not given here.

Tests used:
[1] = system: HCT-116; assay: Induction of apoptosis in human HCT116 cells assessed as late apoptotic cells at 8 uM after 20 hrs by Annexin V-APC/7-AAD staining-based flow cytometric analysis (reference value: 0.0%); type: functional
[2] = system: HCT-116; assay: Induction of apoptosis in human HCT116 cells assessed as viable cells at 8 uM after 20 hrs by Annexin V-APC/7-AAD staining-based flow cytometric analysis (reference value: 96.8%); type: functional; conditions: HCT-116, 20 h, read-out: Activity
[3] = system: HCT-116; assay: Induction of apoptosis in human HCT116 cells assessed as necrotic cells at 12 uM after 20 hrs by Annexin V-APC/7-AAD staining-based flow cytometric analysis (reference value: 0.1%); type: functional
[4] = system: HCT-116; assay: Induction of apoptosis in human HCT116 cells assessed as late apoptotic cells at 12 uM after 20 hrs by Annexin V-APC/7-AAD staining-based flow cytometric analysis (reference value: 0.0%); type: functional
[5] = system: HCT-116; assay: Induction of apoptosis in human HCT116 cells assessed as viable cells at 4 uM after 20 hrs by Annexin V-APC/7-AAD staining-based flow cytometric analysis (reference value: 96.8%); type: functional; conditions: HCT-116, 20 h, read-out: Activity
[6] = system: HCT-116; assay: Inhibition of colony formation in human HCT116 cells treated for 20 hrs and measured after 2 weeks by crystal violet staining-based assay; type: functional, cell-based
[7] = molecular target: T1, Signal transducer and activator of transcription 1-alpha/beta (Homo sapiens) (UniProt P42224); assay: Inhibition of STAT1 phosphorylation at Y701 residue in human HCT116 cells at 4 to 12 uM after 20 hrs by Western blot analysis; type: cell-based
T1 sequence (whole entry): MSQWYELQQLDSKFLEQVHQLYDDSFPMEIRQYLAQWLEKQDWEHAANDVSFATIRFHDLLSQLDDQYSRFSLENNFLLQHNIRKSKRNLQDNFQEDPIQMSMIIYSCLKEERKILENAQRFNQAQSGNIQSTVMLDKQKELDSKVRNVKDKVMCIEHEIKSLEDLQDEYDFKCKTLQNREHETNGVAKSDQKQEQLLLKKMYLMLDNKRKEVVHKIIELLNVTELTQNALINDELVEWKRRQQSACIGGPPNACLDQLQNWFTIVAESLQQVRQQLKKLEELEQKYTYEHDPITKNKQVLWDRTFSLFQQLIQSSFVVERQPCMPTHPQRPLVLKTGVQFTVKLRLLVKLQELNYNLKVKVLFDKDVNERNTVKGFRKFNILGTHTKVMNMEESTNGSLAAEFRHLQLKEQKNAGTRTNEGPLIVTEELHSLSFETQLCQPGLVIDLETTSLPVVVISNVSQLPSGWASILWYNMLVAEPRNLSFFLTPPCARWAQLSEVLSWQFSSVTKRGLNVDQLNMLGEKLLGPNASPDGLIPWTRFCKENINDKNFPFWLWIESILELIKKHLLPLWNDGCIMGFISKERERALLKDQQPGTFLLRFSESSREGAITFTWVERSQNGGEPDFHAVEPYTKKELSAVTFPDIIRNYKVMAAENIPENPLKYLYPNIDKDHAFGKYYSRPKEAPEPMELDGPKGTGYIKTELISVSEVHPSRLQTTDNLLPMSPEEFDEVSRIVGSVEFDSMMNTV

[8] = molecular target: T2, Signal transducer and activator of transcription 5A (Homo sapiens) (UniProt P42229); assay: Inhibition of STAT5 phosphorylation at Y694 residue in human HCT116 cells at 4 to 12 uM after 20 hrs by Western blot analysis; type: cell-based
T2 sequence (whole entry): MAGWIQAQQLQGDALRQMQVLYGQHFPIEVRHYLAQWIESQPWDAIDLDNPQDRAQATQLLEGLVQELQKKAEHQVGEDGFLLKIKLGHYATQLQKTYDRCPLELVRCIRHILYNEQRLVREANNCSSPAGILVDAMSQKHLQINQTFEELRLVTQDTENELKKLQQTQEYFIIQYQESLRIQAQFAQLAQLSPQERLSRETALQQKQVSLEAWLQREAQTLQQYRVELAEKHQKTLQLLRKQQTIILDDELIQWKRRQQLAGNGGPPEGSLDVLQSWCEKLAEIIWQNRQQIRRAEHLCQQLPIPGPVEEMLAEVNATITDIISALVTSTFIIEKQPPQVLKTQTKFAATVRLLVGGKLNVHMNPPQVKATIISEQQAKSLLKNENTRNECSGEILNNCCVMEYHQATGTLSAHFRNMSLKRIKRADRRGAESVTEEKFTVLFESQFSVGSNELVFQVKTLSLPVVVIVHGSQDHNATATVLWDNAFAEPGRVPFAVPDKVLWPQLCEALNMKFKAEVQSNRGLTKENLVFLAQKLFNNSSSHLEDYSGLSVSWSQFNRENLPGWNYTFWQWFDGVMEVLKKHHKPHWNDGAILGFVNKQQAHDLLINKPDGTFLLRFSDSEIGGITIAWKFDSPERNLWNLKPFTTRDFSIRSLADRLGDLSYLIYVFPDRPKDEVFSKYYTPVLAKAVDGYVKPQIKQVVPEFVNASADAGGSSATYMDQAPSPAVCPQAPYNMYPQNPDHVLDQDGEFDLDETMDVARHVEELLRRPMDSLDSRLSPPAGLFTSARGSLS

[9] = system: HCT-116; assay: Induction of apoptosis in human HCT116 cells assessed as early apoptotic cells at 4 uM after 20 hrs by Annexin V-APC/7-AAD staining-based flow cytometric analysis (reference value: 3.1%); type: functional
[10] = system: Mus musculus; assay: Toxicity in nude mouse xenografted with human HCT116 cells assessed as change in body weight at 10 to 20 mg/kg, ip dosed daily for 15 days; type: organism-based; conditions: in vivo, 360 h
[11] = system: HCT-116; assay: Induction of apoptosis in human HCT116 cells assessed as early apoptotic cells at 12 uM after 20 hrs by Annexin V-APC/7-AAD staining-based flow cytometric analysis (reference value: 3.1%); type: functional

Compound `CC(C)c1ccc(CN(Cc2c(F)c(F)c(F)c(F)c2F)c2cccc(S(N)(=O)=O)c2)cc1` has an Activity [1] of 0.2%, a viability at 8 µM [2] of 89.6% and an Activity [3] of 0.5%. The Activity [4] was 0.6%, the viability at 4 µM [5] was 92.8% and the inhibition [6] was “Dose-dependent effect”. The inhibition [7] was “inactive”, the inhibition [8] was “inactive” and the Activity [9] was 7%. The Activity [10] was “Non-Toxic” and the Activity [11] was 21.9%.
